Assay results as given in patent US20150175655A1 (priority 2012, published 2015).

molecular target: T1, NS3 genotype 3a protease (UniProt Q81258); assay: Ki determination, NS3 protease genotype 3a (fluorogenic depsipeptide substrate); assay type: biochemical, hepatitis C virus; conditions: 200 pM enzyme, 20 μM NS4A peptide, 2 μM substrate, read-out: Ki 3A
T1 construct: Purified NS3 protease domain (amino acids 1-181) of the genotype 1b and 3a virus were generated as above; fused on or other part: N-terminal hexahistidine tag and rTEV protease cleavage site (vector p28-N6H-Tev-NS3(181)3)
T1 sequence (Q81258 1033-1663): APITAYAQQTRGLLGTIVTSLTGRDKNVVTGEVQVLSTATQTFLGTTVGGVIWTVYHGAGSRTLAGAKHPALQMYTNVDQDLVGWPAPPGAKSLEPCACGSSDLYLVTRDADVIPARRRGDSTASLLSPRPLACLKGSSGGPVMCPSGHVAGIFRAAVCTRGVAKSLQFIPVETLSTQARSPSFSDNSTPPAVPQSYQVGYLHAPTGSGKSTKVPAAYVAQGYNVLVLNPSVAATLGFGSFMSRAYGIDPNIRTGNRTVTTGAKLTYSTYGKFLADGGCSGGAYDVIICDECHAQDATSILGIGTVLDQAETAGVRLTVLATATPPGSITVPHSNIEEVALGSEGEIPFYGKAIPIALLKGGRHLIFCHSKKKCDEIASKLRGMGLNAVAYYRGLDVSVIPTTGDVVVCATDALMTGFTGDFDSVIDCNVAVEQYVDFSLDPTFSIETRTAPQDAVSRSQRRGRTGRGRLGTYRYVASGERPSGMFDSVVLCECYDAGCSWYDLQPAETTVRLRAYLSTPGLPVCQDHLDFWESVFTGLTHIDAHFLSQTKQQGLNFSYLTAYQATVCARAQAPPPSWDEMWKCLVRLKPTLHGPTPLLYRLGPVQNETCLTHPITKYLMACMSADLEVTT
Procedure, shortened: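 Refolded His-tagged NS3 protease domain (aa 1-181, genotype 3a) at 200 pM with 20 μM NS4A peptide was pre-incubated 1 h at RT with inhibitor (100 nM–5 pM, 3-fold), then 2 μM FRET depsipeptide substrate was added in HEPES/40% glycerol/10% DMSO buffer. Steady-state rates over 90-120 min (ex 340/em 490 nm) versus inhibitor concentration gave Ki.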

SMILES	Ki
CC[C@@H]1[C@@H]2CN(C(=O)[C@H](C(C)(C)C)NC(=O)O[C@@]3(C)C[C@@H]3CCCCC(F)(F)c3nc4ccc(OC)cc4nc3O2)[C@@H]1C(=O)N[C@]1(C(=O)NS(=O)(=O)C2(C)CC2)C[C@H]1C(F)F [Example 64, (1aS,5S,8S,9S,10R,22aS)-5-tert-butyl-N-[(1R,2R)-2-(difluoromethyl)-1-{[(1-methylcyclopropyl)sulfonyl]carbamoyl}cyclopropyl]-9-ethyl-18,18-difluoro-14-methoxy-1a-methyl-3,6-dioxo-1,1a,3,4,5,6,9,10,18,19,20,21,22,22a-tetradecahydro-8H-7,10-methanocyclopropa[18,19][1,10,3,6]dioxadiazacyclononadecino[11,12-b]quinoxaline-8-carboxamide]	1.2 nM
C[C@@H]1[C@@H]2CN(C(=O)[C@H](C(C)(C)C)NC(=O)O[C@@H]3C[C@@H]4C[C@@H]4[C@H]3CCCCC(F)(F)c3nc4ccccc4nc3O2)[C@@H]1C(=O)N[C@]1(C(=O)NS(=O)(=O)C2(C)CC2)C[C@H]1C(F)F [Example 82, (1aS,2aR,6S,9S,10S,11R,23aR,23bS)-6-tert-butyl-N-[(1R,2R)-2-(difluoromethyl)-1-{[(1-methylcyclopropyl)sulfonyl]carbamoyl}cyclopropyl]-19,19-difluoro-10-methyl-4,7-dioxo-1a,2,2a,4,5,6,7,10,11,19,20,21,22,23,23a,23b-hexadecahydro-1H,9H-8,11-methanocyclopropa[4′,5′]cyclopenta[1′,2′:18,19][1,10,3,6]dioxadiazacyclononade cino[11,12-b]quinoxaline-9-carboxamide]	0.04 nM
COc1ccc2nc3c(nc2c1)O[C@H]1CN(C(=O)[C@H](C(C)(C)C)NC(=O)O[C@@H]2CCC[C@H]2CCCCC3)[C@H](C(=O)N[C@]2(C(=O)NS(=O)(=O)C3CC3)C[C@H]2C(F)F)[C@@H]1C [Example 28, (3aR,7S,10S,11S,12R,24aR)-7-tert-butyl-N-[(1R,2R)-1-[(cyclopropylsulfonyl)carbamoyl]-2-(difluoromethyl)cyclopropyl]-16-methoxy-11-methyl-5,8-dioxo-1,2,3,3a,5,6,7,8,11,12,20,21,22,23,24,24a-hexadecahydro-10H-9,12-methanocyclopenta[18,19][1,10,3,6]dioxadiazacyclononadecino[11,12-b]quinoxaline-10-carboxamide]	0.08 nM
COc1ccc2nc3c(nc2c1)O[C@H]1CN(C(=O)[C@H](C(C)(C)C)NC(=O)O[C@H]2CC4CC(C4)[C@@H]2CCCCC3)[C@H](C(=O)N[C@]2(C(=O)NS(=O)(=O)C3CC3)C[C@H]2C(F)F)[C@@H]1C [Example 72, (4aS,8S,11S,12S,13R,25aS)-8-tert-butyl-N-[(1R,2R)-1-[(cyclopropylsulfonyl)carbamoyl]-2-(difluoromethyl)cyclopropyl]-17-methoxy-12-methyl-6,9-dioxo-2,3,4,4a,6,7,8,9,12,13,21,22,23,24,25,25a-hexadecahydro-1H,11H-1,3:10,13-dimethanoquinoxalino[2,3-k][1,10,3,6]benzodioxadiazacyclononadecine-11-carboxamide]	4.1 nM
CC[C@@H]1[C@@H]2CN(C(=O)[C@H](C(C)(C)C)NC(=O)O[C@@H]3C[C@H]3CCCCCc3nc4ccc(OC)cc4nc3O2)[C@@H]1C(=O)N[C@]1(C(=O)NS(=O)(=O)C2(Cl)CC2)C[C@H]1C(F)F [Example 75, (1aR,5S,8S,9S,10R,22aR)-5-tert-butyl-N-[(1R,2R)-1-{[(1-chlorocyclopropyl)sulfonyl]carbamoyl}-2-(difluoromethyl)cyclopropyl]-9-ethyl-14-methoxy-3,6-dioxo-1,1a,3,4,5,6,9,10,18,19,20,21,22,22a-tetradecahydro-8H-7,10-methanocyclopropa[18,19][1,10,3,6]dioxadiazacyclononadecino[11,12-b]quinoxaline-8-carboxamide]	0.12 nM
CC[C@@H]1[C@@H]2CN(C(=O)[C@H](C(C)(C)C)NC(=O)O[C@@H]3C[C@H]3CCCCCc3nc4ccc(OC)cc4nc3O2)[C@@H]1C(=O)N[C@]1(C(=O)NS(=O)(=O)C2CC2)C[C@H]1CC [Example 3, (1aR,5S,8S,9S,10R,22aR)-5-tert-butyl-N-{(1R,2R)-1-[(cyclopropylsulfonyl)carbamoyl]-2-ethylcyclopropyl}-9-ethyl-14-methoxy-3,6-dioxo-1,1a,3,4,5,6,9,10,18,19,20,21,22,22a-tetradecahydro-8H-7,10-methanocyclopropa[18,19][1,10,3,6]dioxadiazacyclononadecino[11,12-b]quinoxaline-8-carboxamide]	0.56 nM
CC[C@@H]1[C@@H]2CN(C(=O)[C@H](C(C)(C)C)NC(=O)O[C@]3(C)CCC[C@H]3CCCCCc3nc4ccc(OC)cc4nc3O2)[C@@H]1C(=O)N[C@]1(C(=O)NS(=O)(=O)C2CC2)C[C@H]1CC [Example 51]	0.84 nM

same assay, conditions: read-out: Ki 3A, 200 pM enzyme, 20 μM NS4A peptide, 2 μM substrate

SMILES	Ki
CCC[C@@H]1[C@@H]2CN(C(=O)[C@H](C(C)(C)C)NC(=O)O[C@@H]3C[C@H]3CCCCC(F)(F)c3nc4ccc(OC)cc4nc3O2)[C@@H]1C(=O)N[C@]1(C(=O)NS(=O)(=O)C2(C)CC2)C[C@H]1C(F)F [Example 65, (1aR,5S,8S,9S,10R,22aR)-5-tert-butyl-N-[(1R,2R)-2-(difluoromethyl)-1-{[(1-methylcyclopropyl)sulfonyl]carbamoyl}cyclopropyl]-18,18-difluoro-14-methoxy-3,6-dioxo-9-propyl-1,1a,3,4,5,6,9,10,18,19,20,21,22,22a-tetradecahydro-8H-7,10-methanocyclopropa[18,19][1,10,3,6]dioxadiazacyclononadecino[11,12-b]quinoxaline-8-carboxamide]	0.07 nM
COc1ccc2nc3c(nc2c1)O[C@H]1CN(C(=O)[C@H](C(C)(C)C)NC(=O)O[C@@H]2C[C@H]2CCCCC3)[C@H](C(=O)N[C@]2(C(=O)NS(=O)(=O)C3CC3)C[C@H]2C(F)F)[C@@H]1C [Example 19, (1aR,5S,8S,9S,10R,22aR)-5-tert-butyl-N-[(1R,2R)-1-[(cyclopropylsulfonyl)carbamoyl]-2-(difluoromethyl)cyclopropyl]-14-methoxy-9-methyl-3,6-dioxo-1,1a,3,4,5,6,9,10,18,19,20,21,22,22a-tetradecahydro-8H-7,10-methanocyclopropa[18,19][1,10,3,6]dioxadiazacyclononadecino[11,12-b]quinoxaline-8-carboxamide]	0.13 nM
CC[C@@H]1C[C@]1(NC(=O)[C@@H]1[C@H](C)[C@@H]2CN1C(=O)[C@H](C(C)(C)C)NC(=O)O[C@@H]1C[C@H]1CCCCCc1nc3ccc(OC)cc3nc1O2)C(=O)NS(=O)(=O)C1(C)CC1 [Example 21, (1aR,5S,8S,9S,10R,22aR)-5-tert-butyl-N-[(1R,2R)-2-ethyl-1-{[(1-methylcyclopropyl)sulfonyl]carbamoyl}cyclopropyl]-14-methoxy-9-methyl-3,6-dioxo-1,1a,3,4,5,6,9,10,18,19,20,21,22,22a-tetradecahydro-8H-7,10-methanocyclopropa[18,19][1,10,3,6]dioxadiazacyclononadecino[11,12-b]quinoxaline-8-carboxamide]	0.45 nM
